Test results from patent publication US20210255193A1, “LYSINE REACTIVE PROBES AND USES THEREOF” (The Scripps Research Institute, priority 2017, published 2021).

Legend:
Assay in all cases: competitive isoTOP-ABPP
Assay type in all cases: binding
[1] = biological target: T1, TPD52L2 Tumor protein D54 (Homo sapiens, UniProt O43399); set-up: key to isoTOP-ABPP reactivity ratio at lysine O43399_K90: R = MS1 peak area ratio, DMSO (heavy) / compound-treated (light); details: 50 uM, in vitro; for isoTOP-ABPP ratio (R) at liganded lysine O43399_K90: sol, 231; for R value (DMSO/fragment) for probe 1 labeling: O43399_K90
T1 construct: isoTOP-ABPP experiments performed in cell lysates (in vitro); endogenous in cells; host or cells: MDA-MB-231 soluble lysate
T1 sequence (O43399 whole entry, the tested form may be a part): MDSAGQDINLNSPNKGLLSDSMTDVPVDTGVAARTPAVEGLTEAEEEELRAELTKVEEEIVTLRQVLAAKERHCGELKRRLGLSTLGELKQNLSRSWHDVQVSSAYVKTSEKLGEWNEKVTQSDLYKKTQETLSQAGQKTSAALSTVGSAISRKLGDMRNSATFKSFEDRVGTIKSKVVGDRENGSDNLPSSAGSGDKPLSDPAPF
Experimental: (§1) In vitro covalent fragment treatment for isoTOP-ABPP. All compounds were made up as solutions in DMSO (100×) and were used at a final concentration of 50 μM for activated esters and 100 μM for guanidinylating agents. For each profiling sample, 0.5 ml of lysate was treated with 5 μl of the 100× compound stock solution or 5 μl of DMSO. Samples were treated with activated esters for
(§2) STP-alkyne labeling and click chemistry. For concentration-dependent reactivity measurements by isoTOP-ABPP, 0.5 ml proteome aliquots were treated at ambient temperature with 1 mM STP-alkyne 1 (5 μl of 100 mM stock in DMSO) and 0.1 mM STP alkyne 1 (5 μl of 10 mM stock in DMSO), respectively. For competitive isoTOP-ABPP, after in vitro fragment treatment (detailed above), the samples were labeled for 1 h at ambient temperature with 0.1 mM STP-alkyne 1 (5 μl of 10 mM stock in DMSO). Samples were conjugated by copper-mediated azide-alkyne cycloaddition (CuAAC) to either the light (1 mM STP-alkyne or fragment treated) or heavy (0.1 mM STP-alkyne or DMSO treated) TEV tags (10 μl of 5 mM stocks in DMSO, final concentration=100 μM) using tris(2-carboxyethyl)phosphine hydrochloride
(§3) R value calculation and processing. The ratios of light and heavy MS1 peaks for each unique peptide were quantified with a CIMAGE software using default parameters (3 MS1 acquisitions per peak and signal to noise threshold set to 2.5). For reactivity measurements by isoTOP-ABPP, the R value was calculated from the ratio of MS1 peak areas, comparing the 1 mM STP alkyne sample (light TEV tag) with the 0.1 mM STP alkyne sample (heavy TEV tag). For competitive isoTOP-ABPP, the R value was calculated from the ratio of MS1 peak areas, comparing the DMSO treated sample (heavy TEV tag) with the compound treated sample (light TEV tag). […] Ratios for unique peptide entries are calculated for each experiment; overlapping peptides with the same modified lysine (for example, different charge states, MudPIT chromatographic steps or tryptic termini) are grouped together and the median ratio is reported as the final ratio (R). The peptide ratios reported by CIMAGE were further filtered to ensure the removal or correction of low-quality ratios in each individual data set. The quality filters applied were the following: removal of half tryptic peptides; for ratios with high standard deviations from the median (90% of the median or above) the lowest ratio was taken instead of the median; removal of peptides with R=20 and only a single MS2 event triggered during the elution of the parent ion; manual annotation of all the peptides with ratios of 20, removing any peptides with low quality elution profiles that remained after the previous curation steps (only done for competitive isoTOP-ABPP).
(§4) Cross-data processing for fragment screening. For compound treated samples, biological replicates of the same condition were averaged, if the standard deviation was below 60% of the mean; otherwise, for lysines with at least one R value <4 for a particular compound, the lowest value of the ratio set was taken. For lysines, where all R values for a particular compound were ≥4, the average was reported. For peptides containing several possible modified lysines, the lysine with the highest number of quantification events was used for analysis and the remaining, redundant peptides were reported as alternative modification sites. Peptides included in the aggregate dataset (those used for further bioinformatics and statistical analyses) were required to have been quantified in 2 experiments for competitive isoTOP-ABPP. Lysines were categorized as liganded, if they had at least one ratio R≥4 (hit fragments). For liganded lysines with R=20 for all liganding events, lysines were required to have been quantified with R=20 in two separate experiments and were further required to have been quantified with R<20 in one additional experiment.

[2] = biological target: T2, SRP54 Signal recognition particle 54 kDa protein (Homo sapiens, UniProt P61011); set-up: key to isoTOP-ABPP reactivity ratio at lysine P61011_K81: R = MS1 peak area ratio, DMSO (heavy) / compound-treated (light); capped at 20; details: 50 uM, in vitro; for isoTOP-ABPP ratio (R) at liganded lysine P61011_K81: sol, 231; for R value (DMSO/fragment) for probe 1 labeling: P61011_K81
T2 construct: isoTOP-ABPP experiments performed in cell lysates (in vitro); endogenous in cells; host or cells: soluble proteome of human cancer cell lines (MDA-MB-231, Ramos, Jurkat)
T2 sequence (P61011 whole entry, the tested form may be a part): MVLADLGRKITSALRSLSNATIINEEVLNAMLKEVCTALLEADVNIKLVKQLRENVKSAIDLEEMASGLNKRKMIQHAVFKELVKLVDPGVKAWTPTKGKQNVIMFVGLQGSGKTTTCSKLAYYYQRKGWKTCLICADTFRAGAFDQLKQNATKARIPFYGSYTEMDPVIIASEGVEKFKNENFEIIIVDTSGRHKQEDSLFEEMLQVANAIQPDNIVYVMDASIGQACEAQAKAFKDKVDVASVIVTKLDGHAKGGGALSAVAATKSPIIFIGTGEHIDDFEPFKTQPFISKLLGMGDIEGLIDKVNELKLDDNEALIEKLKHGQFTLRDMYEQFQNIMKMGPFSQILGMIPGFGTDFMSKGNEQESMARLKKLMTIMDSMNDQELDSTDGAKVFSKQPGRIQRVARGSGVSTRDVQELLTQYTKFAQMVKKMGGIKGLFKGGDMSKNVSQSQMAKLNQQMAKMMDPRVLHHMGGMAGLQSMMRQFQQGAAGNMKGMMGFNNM
Experimental: as §1, §2, §3, §4

[3] = biological target: T3, PSME3 Proteasome activator complex subunit 3 (Homo sapiens, UniProt P61289); set-up: key to isoTOP-ABPP reactivity ratio at lysine P61289_K237: R = MS1 peak area ratio, DMSO (heavy) / compound-treated (light); key to isoTOP-ABPP reactivity ratio at lysine P61289_K12: R = MS1 peak area ratio, DMSO (heavy) / compound-treated (light); capped at 20; details: 50 uM, in vitro; for isoTOP-ABPP ratio (R) at liganded lysine P61289_K12 / isoTOP-ABPP ratio (R) at liganded lysine P61289_K237: sol, 231
T3 construct: isoTOP-ABPP experiments performed in cell lysates (in vitro); endogenous in cells; host or cells: soluble proteome of human cancer cell lines (MDA-MB-231, Ramos, Jurkat)
T3 sequence (P61289 whole entry, one chain of several): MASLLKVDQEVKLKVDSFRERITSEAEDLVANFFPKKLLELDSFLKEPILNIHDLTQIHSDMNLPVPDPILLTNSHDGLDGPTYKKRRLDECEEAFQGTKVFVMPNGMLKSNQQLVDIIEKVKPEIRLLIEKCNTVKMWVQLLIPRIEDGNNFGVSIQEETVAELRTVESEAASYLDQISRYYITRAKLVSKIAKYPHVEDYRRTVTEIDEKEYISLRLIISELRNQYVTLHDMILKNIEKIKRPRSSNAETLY
Experimental: as §1, §2, §3, §4

[4] = biological target: T4, ECH1 Delta(3,5)-Delta(2,4)-dienoyl-CoA isomerase, mitochondrial (Homo sapiens, UniProt Q13011); set-up: key to isoTOP-ABPP reactivity ratio at lysine Q13011_K112: R = MS1 peak area ratio, DMSO (heavy) / compound-treated (light); capped at 20; details: 50 uM, in vitro; for isoTOP-ABPP ratio (R) at liganded lysine Q13011_K112: sol, 231; for R value (DMSO/fragment) for probe 1 labeling: Q13011_K112
T4 construct: isoTOP-ABPP experiments performed in cell lysates (in vitro); endogenous in cells; host or cells: soluble proteome of human cancer cell lines (MDA-MB-231, Ramos, Jurkat)
T4 sequence (Q13011 34-328): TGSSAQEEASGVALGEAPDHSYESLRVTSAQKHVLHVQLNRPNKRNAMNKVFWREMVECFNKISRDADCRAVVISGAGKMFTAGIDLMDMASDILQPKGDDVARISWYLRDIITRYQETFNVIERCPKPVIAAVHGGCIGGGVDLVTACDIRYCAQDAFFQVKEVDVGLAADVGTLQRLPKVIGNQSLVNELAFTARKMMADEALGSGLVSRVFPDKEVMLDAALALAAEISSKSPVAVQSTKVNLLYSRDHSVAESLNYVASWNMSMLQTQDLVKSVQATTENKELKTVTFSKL
Experimental: as §1, §2, §3, §4

Row | R value (DMSO/fragment) for probe 1 labeling ([1]; 231 sol) | R value (DMSO/fragment) for probe 1 labeling ([3]; P61289_K237, 231 sol) | R value (DMSO/fragment) for probe 1 labeling ([4]; 231 sol) | SMILES | isoTOP-ABPP ratio (R) at liganded lysine O43399_K90 [1] | isoTOP-ABPP ratio (R) at liganded lysine P61011_K81 [2] | isoTOP-ABPP ratio (R) at liganded lysine P61289_K12 [3] | isoTOP-ABPP ratio (R) at liganded lysine P61289_K237 [3] | isoTOP-ABPP ratio (R) at liganded lysine Q13011_K112 [4] | other results
1 | – | – | – | CC(C)(C)OC(=O)NCCCC(=O)Oc1ccc([N+](=O)[O-])cc1[N+](=O)[O-] [fragment 41, 2,4-Dinitrophenyl 4-((tert-butoxycarbonyl)amino)butanoate] | 1.3 | 1.0 | 3.5 | 2.2 | 1.0 | –
2 | 3.6 | 1.1 | 1.5 | Cn1cc(CC(=O)Oc2c(F)c(F)c(F)c(F)c2F)c2ccccc21 [fragment 22, Pentafluorophenyl 2-(1-methyl-1H-indol-3-yl)acetate] | – | – | – | – | – | R value (DMSO/fragment) for probe 1 labeling ([2]; 231 sol): 0.9; R value (DMSO/fragment) for probe 1 labeling ([3]; P61289_K12, 231 sol): 0.9
3 | – | – | – | O=C(Oc1ccc([N+](=O)[O-])cc1[N+](=O)[O-])c1ccc(-c2ccccc2)cc1 [fragment 37, 2,4-Dinitrophenyl [1,1′-biphenyl]-4-carboxylate] | 1.6 | 0.9 | 0.9 | 1.0 | 0.9 | –
4 | – | – | – | COc1cc(CCC(=O)Oc2ccc([N+](=O)[O-])cc2[N+](=O)[O-])cc(OC)c1OC [fragment 33, 2,4-Dinitrophenyl 3-(3,4,5-trimethoxyphenyl)propanoate] | – | – | – | – | – | isoTOP-ABPP reactivity ratio at lysine O43399_K90 ([1]; 231 sol): 1.3; isoTOP-ABPP reactivity ratio at lysine P61011_K81 ([2]; 231 sol): 1.3; isoTOP-ABPP reactivity ratio at lysine P61289_K12 ([3]; 231 sol): 2.1; isoTOP-ABPP reactivity ratio at lysine P61289_K237 ([3]; 231 sol): 1.1; isoTOP-ABPP reactivity ratio at lysine Q13011_K112 ([4]; 231 sol): 0.9
5 | 1.5 | 0.9 | 1.4 | O=C(Oc1c(F)c(F)c(F)c(F)c1F)C(c1ccccc1)c1ccccc1 [fragment 20, Pentafluorophenyl 2,2-diphenylacetate] | – | – | – | – | – | R value (DMSO/fragment) for probe 1 labeling ([2]; 231 sol): 1.0; R value (DMSO/fragment) for probe 1 labeling ([3]; P61289_K12, 231 sol): 0.9
6 | – | – | – | O=C(Oc1ccc([N+](=O)[O-])cc1[N+](=O)[O-])c1ccc2ccccc2n1 [fragment 35, 2,4-Dinitrophenyl quinoline-2-carboxylate] | 1.3 | 0.8 | 0.7 | 0.8 | 1.0 | –
7 | 1.5 | 0.5 | 4.7 | COc1cc(CCC(=O)Oc2c(F)c(F)c(F)c(F)c2F)cc(OC)c1OC [fragment 23, Pentafluorophenyl 3-(3,4,5-trimethoxyphenyl)propanoate] | – | – | – | – | – | –
8 | – | – | – | O=C(Oc1ccc([N+](=O)[O-])cc1[N+](=O)[O-])c1ccccc1Nc1cccc(C(F)(F)F)c1 [fragment 40, 2,4-Dinitrophenyl 2-((3-(trifluoromethyl)phenyl)amino)benzoate] | 1.2 | – | 0.8 | 0.7 | 1.0 | –
